# Laboratory results from the supplement of paper PMC11208160.
# Assay: recombinant UMI read abundance after kanamycin selection (control-corrected) (log10(CPM+1)); higher = more efficient recombination; extreme values may be limits of the assay; sequences stand for … in AGTGCAGAGAAAATCGGCCAGTTTTCTCTGCCTGCAGTCCGCATGCCGTGGGACCCCTTGGGTTCTAACCTGTTGCCTAGATTTATGCAGCGGACTGCCTTTCTCCCAAAGTGATAAACCGG…AGGTTGGTTTCACT; site = the 11-nt donor
# Method in brief: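 For the IS621 bridge recombinase, a pooled Escherichia coli screen tested donor and donor-binding-loop pairs. Cells received the pair library together with a target plasmid encoding a fixed target and T7-inducible recombinase, then went onto IPTG (0.07 mM) plus kanamycin or unselected plates in duplicate. After PCR across the donor–target junction and sequencing, recombinant UMI counts were normalized to CPM, averaged, and scaled by control-derived factors. Each value is given as log10(CPM+1).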
# 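Further: IS621 bridge recombinase in Escherichia coli cells against a fixed T5 target plasmid.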
sequence,measurement,value
CCTTAAGCATGGACCGGTTTTCCCGGTAATCCGTATTTGAT (site CCTTAAGCTAT),recombinant UMI read abundance (log10),0.00726
CCTTAGACATGGACCGGTTTTCCCGGTAATCCGTATTTGAG (site CATTAGACTCT),recombinant UMI read abundance (log10),0.0191
CCTTAGACATGGACCGGTTTTCCCGGTAATCCGTATTTGAG (site CCTTAGACTCT),recombinant UMI read abundance (log10),0.0167
CCTTAGACATGGACCGGTTTTCCCGGTAATCCGTATTTGAG (site CGTTAGACTCT),recombinant UMI read abundance (log10),0.0159
CCTTAGACATGGACCGGTTTTCCCGGTAATCCGTATTTGAG (site CTTTAGACTCT),recombinant UMI read abundance (log10),0.0107
CCTTGTCCATGGACCGGTTTTCCCGGTAATCCGTATTTGCG (site CCTTGTCCTCG),recombinant UMI read abundance (log10),0.00291
CCTTTACCATGGACCGGTTTTCCCGGTAATCCGTATTTGAA (site CCTTTACCTTT),recombinant UMI read abundance (log10),0.019
CCTTTCTCATGGACCGGTTTTCCCGGTAATCCGTATTTGCG (site CCTTTCTCTCG),recombinant UMI read abundance (log10),0
CCTTTGCCATGGACCGGTTTTCCCGGTAATCCGTATTTGTG (site CCTTTGCCTCA),recombinant UMI read abundance (log10),0.00549
CGAACATCATGGACCGGTTTTCCCGGTAATCCGTATTTGCC (site CGAACATCTGG),recombinant UMI read abundance (log10),0.671
CGAACATCATGGACCGGTTTTCCCGGTAATCCGTATTTGCC (site CGATCATCTAG),recombinant UMI read abundance (log10),0
CGAACATCATGGACCGGTTTTCCCGGTAATCCGTATTTGCT (site CGAACATCTAG),recombinant UMI read abundance (log10),2.13
CGAACATCATGGACCGGTTTTCCCGGTAATCCGTATTTGCT (site CGACCATCTAG),recombinant UMI read abundance (log10),0.469
CGAACATCATGGACCGGTTTTCCCGGTAATCCGTATTTGCT (site CGAGCATCTAG),recombinant UMI read abundance (log10),1.39
CGAACATCATGGACCGGTTTTCCCGGTAATCCGTATTTGCT (site CGATCATCTAG),recombinant UMI read abundance (log10),0
CGAACATCATGGACCGGTTTTCCCGGTAATCCGTATTTGCT (site CGCACATCTAG),recombinant UMI read abundance (log10),0
CGAACATCATGGACCGGTTTTCCCGGTAATCCGTATTTGCT (site CGGACATCTAG),recombinant UMI read abundance (log10),0.583
CGAACATCATGGACCGGTTTTCCCGGTAATCCGTATTTGCT (site CGTACATCTAG),recombinant UMI read abundance (log10),0
CGAACTACATGGACCGGTTTTCCCGGTAATCCGTATTTGAG (site CGAACTACTCT),recombinant UMI read abundance (log10),1.95
CGAAGCCCATGGACCGGTTTTCCCGGTAATCCGTATTTGAT (site CGAAGCCCTAT),recombinant UMI read abundance (log10),1.22
CGACAATCATGGACCGGTTTTCCCGGTAATCCGTATTTGCT (site CGACAATCTAG),recombinant UMI read abundance (log10),2.77
CGACAATCATGGACCGGTTTTCCCGGTAATCCGTATTTGCT (site CGATCATCTAG),recombinant UMI read abundance (log10),0
CGACATACATGGACCGGTTTTCCCGGTAATCCGTATTTGCG (site CGACATACTCG),recombinant UMI read abundance (log10),2.76
CGACCATCATGGACCGGTTTTCCCGGTAATCCGTATTTGCG (site CGACCATCTCG),recombinant UMI read abundance (log10),2.23
CGACCATCATGGACCGGTTTTCCCGGTAATCCGTATTTGCG (site CGATCATCTAG),recombinant UMI read abundance (log10),0
CGACCCACATGGACCGGTTTTCCCGGTAATCCGTATTTGGT (site CGACCCACTAC),recombinant UMI read abundance (log10),1.23
CGACCGACATGGACCGGTTTTCCCGGTAATCCGTATTTGTT (site CGAACGACTAA),recombinant UMI read abundance (log10),0.0187
CGACCGACATGGACCGGTTTTCCCGGTAATCCGTATTTGTT (site CGACCGACTAA),recombinant UMI read abundance (log10),0.195
CGACCGACATGGACCGGTTTTCCCGGTAATCCGTATTTGTT (site CGAGCGACTAA),recombinant UMI read abundance (log10),0.00884
CGACCGACATGGACCGGTTTTCCCGGTAATCCGTATTTGTT (site CGATCGACTAA),recombinant UMI read abundance (log10),0.00843
CGACGACCATGGACCGGTTTTCCCGGTAATCCGTATTTGGG (site CGAAGACCTCC),recombinant UMI read abundance (log10),0.0167
CGACGACCATGGACCGGTTTTCCCGGTAATCCGTATTTGGG (site CGACGACCTCC),recombinant UMI read abundance (log10),0.0126
CGACGACCATGGACCGGTTTTCCCGGTAATCCGTATTTGGG (site CGAGGACCTCC),recombinant UMI read abundance (log10),0.0314
CGACGACCATGGACCGGTTTTCCCGGTAATCCGTATTTGGG (site CGATGACCTCC),recombinant UMI read abundance (log10),0.0338
CGACGAGCATGGACCGGTTTTCCCGGTAATCCGTATTTGGG (site ACGTCGACTTT),recombinant UMI read abundance (log10),0.00438
CGACTGGCATGGACCGGTTTTCCCGGTAATCCGTATTTGTA (site CGACTGGCTTA),recombinant UMI read abundance (log10),1.65
CGAGATCCATGGACCGGTTTTCCCGGTAATCCGTATTTGTT (site CGAGATCCTAA),recombinant UMI read abundance (log10),1.4
CGAGATCCATGGACCGGTTTTCCCGGTAATCCGTATTTGTT (site CGGAATCCTAA),recombinant UMI read abundance (log10),0
CGAGCACCATGGACCGGTTTTCCCGGTAATCCGTATTTGGG (site CGAGAACCTCC),recombinant UMI read abundance (log10),0.00342
CGAGCACCATGGACCGGTTTTCCCGGTAATCCGTATTTGGG (site CGAGCACCTCC),recombinant UMI read abundance (log10),0.0175
CGAGCACCATGGACCGGTTTTCCCGGTAATCCGTATTTGGG (site CGAGGACCTCC),recombinant UMI read abundance (log10),0.0108
CGAGCACCATGGACCGGTTTTCCCGGTAATCCGTATTTGGG (site CGAGTACCTCC),recombinant UMI read abundance (log10),0.0136
CGAGCAGCATGGACCGGTTTTCCCGGTAATCCGTATTTGCC (site CGAGCAGCTGG),recombinant UMI read abundance (log10),2.69
CGAGCATCATGGACCGGTTTTCCCGGTAATCCGTATTTGGT (site CGAGCATCTAC),recombinant UMI read abundance (log10),2.34
CGAGCCTCATGGACCGGTTTTCCCGGTAATCCGTATTTGCG (site CGAGCCTCTCG),recombinant UMI read abundance (log10),2.41
CGAGCGACATGGACCGGTTTTCCCGGTAATCCGTATTTGAA (site CGAGCGACTTT),recombinant UMI read abundance (log10),1.74
CGAGCTTCATGGACCGGTTTTCCCGGTAATCCGTATTTGCT (site CGAGCTTCTAG),recombinant UMI read abundance (log10),1.85
CGAGCTTCATGGACCGGTTTTCCCGGTAATCCGTATTTGCT (site CGATCATCTAG),recombinant UMI read abundance (log10),0
CGAGGGACATGGACCGGTTTTCCCGGTAATCCGTATTTGTC (site CGAGGGACTGA),recombinant UMI read abundance (log10),2.59
CGAGTACCATGGACCGGTTTTCCCGGTAATCCGTATTTGAC (site CGAGTACCTGT),recombinant UMI read abundance (log10),0
CGAGTACCATGGACCGGTTTTCCCGGTAATCCGTATTTGAC (site CTAGTATCTGT),recombinant UMI read abundance (log10),0
CGAGTATCATGGACCGGTTTTCCCGGTAATCCGTATTTGAC (site CAAGTATCTGT),recombinant UMI read abundance (log10),2.57
CGAGTATCATGGACCGGTTTTCCCGGTAATCCGTATTTGAC (site CCAGTATCTGT),recombinant UMI read abundance (log10),1.99
CGAGTATCATGGACCGGTTTTCCCGGTAATCCGTATTTGAC (site CGAGTATCTGT),recombinant UMI read abundance (log10),3.24
CGAGTATCATGGACCGGTTTTCCCGGTAATCCGTATTTGAC (site CTAGTATCTGT),recombinant UMI read abundance (log10),2.01
CGAGTATCATGGACCGGTTTTCCCGGTAATCCGTATTTGCT (site CGAGTATCTAG),recombinant UMI read abundance (log10),2.71
CGAGTATCATGGACCGGTTTTCCCGGTAATCCGTATTTGCT (site CGATCATCTAG),recombinant UMI read abundance (log10),0
CGAGTGGCATGGACCGGTTTTCCCGGTAATCCGTATTTGGT (site AGAGTGGCTAC),recombinant UMI read abundance (log10),0.574
CGAGTGGCATGGACCGGTTTTCCCGGTAATCCGTATTTGGT (site CGAGTGGCTAC),recombinant UMI read abundance (log10),1.1
CGAGTGGCATGGACCGGTTTTCCCGGTAATCCGTATTTGGT (site GGAGTGGCTAC),recombinant UMI read abundance (log10),0.0253
CGAGTGGCATGGACCGGTTTTCCCGGTAATCCGTATTTGGT (site TGAGTGGCTAC),recombinant UMI read abundance (log10),0.0187
CGAGTGTCATGGACCGGTTTTCCCGGTAATCCGTATTTGAC (site CGAGTGTCTGT),recombinant UMI read abundance (log10),2.13
CGAGTGTCATGGACCGGTTTTCCCGGTAATCCGTATTTGAC (site CTAGTATCTGT),recombinant UMI read abundance (log10),0.545
CGATAAACATGGACCGGTTTTCCCGGTAATCCGTATTTGCG (site CGATAAACTCG),recombinant UMI read abundance (log10),2.63
CGATAATCATGGACCGGTTTTCCCGGTAATCCGTATTTGCT (site CGATAATCTAG),recombinant UMI read abundance (log10),2.99
CGATAATCATGGACCGGTTTTCCCGGTAATCCGTATTTGCT (site CGATCATCTAG),recombinant UMI read abundance (log10),0
CGATAATCATGGACCGGTTTTCCCGGTAATCCGTATTTGCT (site CGATGATCTAG),recombinant UMI read abundance (log10),0
CGATAATCATGGACCGGTTTTCCCGGTAATCCGTATTTGCT (site CGATTATCTAG),recombinant UMI read abundance (log10),0.415
CGATAGACATGGACCGGTTTTCCCGGTAATCCGTATTTGAG (site CGATAGACTCT),recombinant UMI read abundance (log10),2.32
CGATAGACATGGACCGGTTTTCCCGGTAATCCGTATTTGAG (site CGCTAGACTCT),recombinant UMI read abundance (log10),0.00552
CGATAGACATGGACCGGTTTTCCCGGTAATCCGTATTTGAG (site CGGTAGACTCT),recombinant UMI read abundance (log10),0.902
CGATAGACATGGACCGGTTTTCCCGGTAATCCGTATTTGAG (site CGTTAGACTCT),recombinant UMI read abundance (log10),0.979
CGATAGACATGGACCGGTTTTCCCGGTAATCCGTATTTGTT (site CGATAGACTAA),recombinant UMI read abundance (log10),2
CGATAGACATGGACCGGTTTTCCCGGTAATCCGTATTTGTT (site CGATCGACTAA),recombinant UMI read abundance (log10),0.04
CGATAGACATGGACCGGTTTTCCCGGTAATCCGTATTTGTT (site CGATGGACTAA),recombinant UMI read abundance (log10),0.0144
